Measured values taken from patent US20080194585A1, “Fungicidal Pyrazine Derivatives” (priority 2005, published 2008).
Marks after values point to notes of the source that are not given here.

Experiments:
Plasmopara viticola = assay: Test D: grape downy mildew, spray after inoculation of grape seedlings; assay type: in vivo; settings: 200 ppm
Source text: Upon removal, disease ratings were made. […] A dash (-) indicates no test results.

Phytophthora infestans = assay: whole plant or invertebrate; assay type: in vivo; settings: for Test F disease control rating: 200 ppm
Septoria tritici = assay: Test J: wheat leaf blotch, preventive spray on wheat seedlings; assay type: in vivo
Source text: A dash (-) indicates no test results.

fusarium graminearium = assay: Test I: wheat head scab, preventive spray on wheat seedlings; settings: for Test I disease control rating: 200 ppm
Description: (the causal agent of wheat head scab) and incubated in a saturated atmosphere at 20° C. for 72 h, and then moved to a growth chamber at 22° C. for 5 days, after which disease ratings were made.

[1] = test system: Puccinia recondita f. sp. tritici; assay: Test K: wheat leaf rust, preventive spray on wheat seedlings
Botrytis cinerea = assay: Test E: tomato botrytis, preventive spray on tomato seedlings
Septoria nodorum = assay: Test H: wheat glum blotch, preventive spray on wheat seedlings
Description: (the causal agent of wheat glum blotch) and incubated in a saturated atmosphere at 20° C. for 48 h, and then moved to a growth chamber at 22° C. for 5 days, after which disease ratings were made.

[2] = test system: Erysiphe graminis f. sp. tritici; assay: Test L: wheat powdery mildew, preventive spray on wheat seedlings
Sclerotinia sclerotiorum = assay: Test C: cucumber white mold, preventive spray on cucumber seedlings
Pythium aphanidermatum = assay: Test A: bluegrass pythium blight, preventive spray on bluegrass seedlings; settings: for Test A disease control rating: 200 ppm
Rhizoctonia oryzae = assay: Test G: turf brown patch, preventive spray on creeping bent grass seedlings
Description: (the causal agent of turf brown patch) and incubated in a saturated atmosphere at 27° C. for 24 h, and then moved to a growth chamber at 27° C. for 5 days, after which disease ratings were made.

[3] = test system: Colletotrichum orbiculare; assay: Test B: cucumber Colletotrichum anthracnose, preventive spray on cucumber seedlings
[4] = 100 = 100% disease control, 0 = no control
[5] = 200 ppm, 100 = 100% disease control, 0 = no control
[6] = 40 ppm (marked *), 100 = 100% disease control, 0 = no control

| Structure (SMILES) | Test D disease control rating (Plasmopara viticola) [%] | Test F disease control rating (Phytophthora infestans) [%] | Test J disease control rating (Septoria tritici; 200 ppm) [%] | Test I disease control rating (fusarium graminearium) [%] | Test K disease control rating ([1]; 200 ppm) [%] | Test E disease control rating (Botrytis cinerea; 200 ppm) [%] | Test H disease control rating (Septoria nodorum; 200 ppm) [%] | Test L disease control rating ([2]; 200 ppm) [%] | Test C disease control rating (Sclerotinia sclerotiorum; 200 ppm) [%] | Test A disease control rating (Pythium aphanidermatum) [%] | Test G disease control rating (Rhizoctonia oryzae; 200 ppm) [%] | Test B disease control rating ([3]; 200 ppm) [%] | Test J disease control rating (Septoria tritici; 40 ppm (*)) | also measured |
| --- | --- | --- | --- | --- | --- | --- | --- | --- | --- | --- | --- | --- | --- | --- |
| CC(C)Cn1c(-c2ccc(F)cc2Cl)c(Cl)nc(-n2cccn2)c1=O [Compound 302, 5-Chloro-6-(2-chloro-4-fluorophenyl)-1-(2-methylpropyl)-3-(1H-pyrazol-1-yl)-2(1H)-pyrazinone] |  |  |  |  |  |  |  |  |  |  |  |  |  | Test D disease control rating (Plasmopara viticola; [4]): 0%; pest or weed control at 200 ppm (Phytophthora infestans; Phytophthora infestans, in Solanum lycopersicum, topical, 144 h, read-out: Test F disease control rating): 0%; pest or weed control at 40 ppm (Septoria tritici; Zymoseptoria tritici, 528 h, 40 ppm (marked *), 100 = 100% disease control, 0 = no control, read-out: Test J disease control rating): 100%; pest or weed control at 200 ppm (fusarium graminearium; Fusarium, in Triticum aestivum, topical, 192 h, read-out: Test I disease control rating, 200 ppm, 100 = 100% disease control, 0 = no control): 0%; pest or weed control at 40 ppm ([1]; Puccinia recondita, in Triticum aestivum, 192 h, read-out: Test K disease control rating): 100%; pest or weed control at 40 ppm (Botrytis cinerea; Botrytis cinerea, in Solanum lycopersicum, topical, 72 h, read-out: Test E disease control rating): 100%; pest or weed control at 40 ppm (Septoria nodorum; Parastagonospora nodorum, in Triticum aestivum, topical, 168 h, read-out: Test H disease control rating, 40 ppm (marked *), 100 = 100% disease control, 0 = no control): 99%; pest or weed control at 40 ppm ([2]; Blumeria graminis, in Triticum aestivum, 168 h, read-out: Test L disease control rating, 40 ppm (marked *), 100 = 100% disease control, 0 = no control): 98%; Test C disease control rating (Sclerotinia sclerotiorum; [5]): 60%; pest or weed control at 200 ppm (Pythium aphanidermatum; Pythium aphanidermatum, 120 h, read-out: Test A disease control rating): 0%; pest or weed control at 40 ppm (Rhizoctonia oryzae; Waitea circinata, in Agrostis stolonifera, topical, 144 h, read-out: Test G disease control rating, 40 ppm (marked *), 100 = 100% disease control, 0 = no control): 94%; pest or weed control at 40 ppm ([3]; Colletotrichum orbiculare, in Cucumis sativus, 144 h, read-out: Test B disease control rating, 40 ppm (marked *), 100 = 100% disease control, 0 = no control): 98% |
| CC(C)Cn1c(-c2ccc(F)cc2Cl)c(Cl)nc(-n2cccn2)c1=O [Compound 303, 5-Chloro-6-(2-chloro-4-fluorophenyl)-1-(2-methylpropyl)-3-(1H-pyrazol-1-yl)-2(1H)-pyrazinone] |  |  |  |  |  |  |  |  |  |  |  |  |  | Test D disease control rating (Plasmopara viticola; [4]): 58%; Test F disease control rating (Phytophthora infestans; [4]): 0%; Test J disease control rating (Septoria tritici; [6]): 100* %; Test I disease control rating (fusarium graminearium; [4]): 0%; Test K disease control rating [1, 6]: 100* %; Test E disease control rating (Botrytis cinerea; [6]): 100* %; Test H disease control rating (Septoria nodorum; [6]): 100* %; Test L disease control rating [2, 6]: 100* %; Test C disease control rating (Sclerotinia sclerotiorum; [5]): 94%; Test A disease control rating (Pythium aphanidermatum; [4]): 0%; Test G disease control rating (Rhizoctonia oryzae; [6]): 100* %; Test B disease control rating [3, 6]: 100* % |
| CC(C)Cn1c(-c2c(F)cc(F)cc2F)c(Cl)nc(-n2cccn2)c1=O [compound 7] | 88 | 0 | 100 | 99 | 100 | 100 | 100 | 100 | 95 | 51 | 95 | 100 |  |  |
| O=c1c(-n2cccn2)nc(Cl)c(-c2c(F)cccc2F)n1CC1CC1 [compound 18] | 98 | 0 | 100 | 0 | 100 | 100 | 100 | 100 | 99 | 0 | 100 | 100 |  |  |
| CCC(C)Cn1c(-c2c(F)cc(F)cc2F)c(Cl)nc(-n2cccn2)c1=O (stereo not drawn) [compound 19] | 46 | 27 | 100 | 90 | 100 | 100 | 100 | 100 | 98 | 0 | 100 | 100 |  |  |
| CC(C)Cn1c(-c2ccc(Cl)cc2)c(Cl)nc(-n2cncn2)c1=O [compound 23] | 0 | 0 | 98 | 68 | 68 | 99 | 98 | 0 | 0 | 0 | 33 | 21 |  |  |
| Cc1nc(C)n(-c2nc(Cl)c(-c3ccc(Cl)cc3)n(CC(C)C)c2=O)n1 [compound 24] | 5 | 0 | 80 | 0 | 0 | 0 | 0 | 0 | 0 | 0 | 0 | 0 |  |  |
| CC(C)Cn1c(-c2c(Cl)cccc2Cl)c(Cl)nc(-n2cccn2)c1=O [compound 43] | 0 | 0 |  | 0 | 100 | 100 | 100 | 96 | 94 | 0 | 92 | 99 | 100* % |  |
| CC(C)Cn1c(-c2ccc(Cl)cc2F)c(Cl)nc(-n2cccn2)c1=O [compound 45] | 0 | 0 |  | 82 | 100 | 100 | 100 | 85 | 85 | 0 | 26 | 100 | 100* % |  |
| O=c1c(-n2cccn2)nc(Cl)c(-c2c(F)cccc2F)n1C1CCCCC1 [compound 47] | 0 | 0 | 100 | 78 | 95 | 100 | 99 | 99 | 0 | 74 | 92 | 54 |  |  |
| CC(C)Cn1c(-c2cccc(F)c2F)c(Cl)nc(-n2cccn2)c1=O [compound 50] | 0 | 0 |  | 0 | 100 | 100 | 100 | 94 | 98 | 0 | 95 | 0 | 100* % |  |
| CC(C)Cn1c(-c2cc(F)ccc2F)c(Cl)nc(-n2cccn2)c1=O [compound 56] | 29 | 0 |  | 60 | 99 | 100 | 100 | 99 | 99 | 0 | 92 | 99 | 100* % |  |
| CC(C)Cn1c(-c2c(F)ccc(F)c2F)c(Cl)nc(-n2cccn2)c1=O [compound 57] | 32 | 0 |  | 0 | 100 | 100 | 100 | 100 | 98 | 0 | 98 | 100 | 99* % |  |
| CCC(C)Cn1c(-c2c(F)cccc2F)c(Cl)nc(-n2ccc(C)n2)c1=O (stereo not drawn) [compound 66] | 0 | 0 |  | 0 |  |  |  |  |  | 0 |  |  | 100* % | Test K disease control rating ([1]; 40 ppm (*)): 97* %; Test E disease control rating (Botrytis cinerea; 40 ppm (*)): 100* %; Test H disease control rating (Septoria nodorum; 40 ppm (*)): 89* %; Test L disease control rating ([2]; 40 ppm (*)): 99* %; Test C disease control rating (Sclerotinia sclerotiorum; 40 ppm (*)): 0* %; Test G disease control rating (Rhizoctonia oryzae; 40 ppm (*)): 95* %; Test B disease control rating ([3]; 40 ppm (*)): 62* % |
